The values that follow come from publication PMC10112881 (Cell reports, 2023).

SMILES strings stand for the structures.

The target of one data set is β2 (Homo sapiens, UniProt P07550). Kind of data set: G protein dissociation BRET assay. The data set is classed as cell-based. The note with it: read-out: KB (antagonist). On the technique in general: Bioluminescence resonance energy transfer reports proximity on the nanometre scale.
The target of a further data set is 5-HT2C (Homo sapiens, UniProt P28335). It counts as cell-based.
Chain of 5-HT2C (P28335 33-458): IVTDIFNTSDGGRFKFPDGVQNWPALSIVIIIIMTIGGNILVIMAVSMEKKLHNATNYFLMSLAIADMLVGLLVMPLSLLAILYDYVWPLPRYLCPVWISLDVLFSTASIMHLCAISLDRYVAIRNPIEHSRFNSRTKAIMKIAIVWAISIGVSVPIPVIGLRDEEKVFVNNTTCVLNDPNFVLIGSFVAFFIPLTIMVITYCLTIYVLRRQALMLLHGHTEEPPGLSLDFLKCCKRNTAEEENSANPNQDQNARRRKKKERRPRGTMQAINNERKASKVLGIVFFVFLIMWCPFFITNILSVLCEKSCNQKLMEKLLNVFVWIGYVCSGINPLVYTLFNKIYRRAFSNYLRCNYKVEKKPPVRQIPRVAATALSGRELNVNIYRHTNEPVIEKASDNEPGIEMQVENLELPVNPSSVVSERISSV
For a further data set, the target named is 5-HT2A (Homo sapiens, UniProt P28223). The data set is classed as cell-based. The note with it: β-arrestin recruitment, normalized to 5-HT. On the technique in general: Arrestin recruitment assays detect the binding of arrestin to an activated receptor.
Chain of 5-HT2A (P28223 whole entry): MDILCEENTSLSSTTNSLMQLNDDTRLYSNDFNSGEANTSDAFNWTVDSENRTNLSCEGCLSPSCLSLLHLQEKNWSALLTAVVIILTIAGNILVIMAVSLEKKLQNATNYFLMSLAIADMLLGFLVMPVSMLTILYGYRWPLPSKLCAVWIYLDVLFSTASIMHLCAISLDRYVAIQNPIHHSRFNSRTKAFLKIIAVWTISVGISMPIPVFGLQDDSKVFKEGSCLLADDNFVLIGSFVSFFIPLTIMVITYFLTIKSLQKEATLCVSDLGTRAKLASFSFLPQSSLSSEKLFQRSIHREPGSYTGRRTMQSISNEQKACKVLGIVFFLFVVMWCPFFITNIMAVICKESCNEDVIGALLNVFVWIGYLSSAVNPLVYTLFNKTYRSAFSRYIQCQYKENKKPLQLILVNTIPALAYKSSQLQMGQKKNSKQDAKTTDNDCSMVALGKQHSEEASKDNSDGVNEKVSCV
The target of another data set is hERG (KV11.1) channel (Homo sapiens, UniProt Q12809). The note with it: read-out: IC50 (hERG inhibition). (In general: hERG is a cardiac potassium channel; its block is linked to QT prolongation.)
Chain of hERG (KV11.1) channel (Q12809 whole entry): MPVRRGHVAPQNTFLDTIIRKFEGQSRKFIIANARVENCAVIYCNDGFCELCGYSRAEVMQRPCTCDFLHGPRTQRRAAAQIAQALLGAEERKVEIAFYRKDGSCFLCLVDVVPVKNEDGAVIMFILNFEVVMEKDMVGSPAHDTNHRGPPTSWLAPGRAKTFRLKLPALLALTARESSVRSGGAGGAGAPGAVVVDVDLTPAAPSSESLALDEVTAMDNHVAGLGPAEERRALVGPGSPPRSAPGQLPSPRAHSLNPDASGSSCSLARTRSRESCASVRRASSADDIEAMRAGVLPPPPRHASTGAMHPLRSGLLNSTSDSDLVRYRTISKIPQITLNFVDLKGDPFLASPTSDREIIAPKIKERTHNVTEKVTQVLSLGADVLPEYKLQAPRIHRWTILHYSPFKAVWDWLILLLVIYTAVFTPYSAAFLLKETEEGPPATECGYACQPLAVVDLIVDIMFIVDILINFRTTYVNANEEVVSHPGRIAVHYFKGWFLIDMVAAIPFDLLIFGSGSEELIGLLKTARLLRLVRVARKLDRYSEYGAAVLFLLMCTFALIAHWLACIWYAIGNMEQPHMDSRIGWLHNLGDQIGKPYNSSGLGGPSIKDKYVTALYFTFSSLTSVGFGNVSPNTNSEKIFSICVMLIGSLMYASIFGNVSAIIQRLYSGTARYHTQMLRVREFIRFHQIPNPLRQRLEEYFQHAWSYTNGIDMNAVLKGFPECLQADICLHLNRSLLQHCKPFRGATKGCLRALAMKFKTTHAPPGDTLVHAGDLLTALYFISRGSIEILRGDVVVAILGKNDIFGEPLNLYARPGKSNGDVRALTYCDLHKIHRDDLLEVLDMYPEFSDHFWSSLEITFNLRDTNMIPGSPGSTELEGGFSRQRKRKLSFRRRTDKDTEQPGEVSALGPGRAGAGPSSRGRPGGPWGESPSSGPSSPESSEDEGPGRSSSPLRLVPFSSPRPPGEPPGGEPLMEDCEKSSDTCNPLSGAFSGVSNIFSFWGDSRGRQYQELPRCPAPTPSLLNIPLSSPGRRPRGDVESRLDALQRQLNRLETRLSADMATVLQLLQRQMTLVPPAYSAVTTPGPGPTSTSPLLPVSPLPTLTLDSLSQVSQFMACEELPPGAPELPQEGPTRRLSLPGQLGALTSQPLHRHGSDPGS
A further data set concerns the target 5-HT6 (Homo sapiens, UniProt P50406). Kind of data set: G protein dissociation BRET assay. The data set is classed as cell-based. To be noted: read-out: EC50 (partial agonism).
In a further data set the target is H2 (Homo sapiens, UniProt P25021). Put plainly: G protein dissociation BRET assay. The data set is classed as cell-based.
Chain of H2 (P25021 whole entry): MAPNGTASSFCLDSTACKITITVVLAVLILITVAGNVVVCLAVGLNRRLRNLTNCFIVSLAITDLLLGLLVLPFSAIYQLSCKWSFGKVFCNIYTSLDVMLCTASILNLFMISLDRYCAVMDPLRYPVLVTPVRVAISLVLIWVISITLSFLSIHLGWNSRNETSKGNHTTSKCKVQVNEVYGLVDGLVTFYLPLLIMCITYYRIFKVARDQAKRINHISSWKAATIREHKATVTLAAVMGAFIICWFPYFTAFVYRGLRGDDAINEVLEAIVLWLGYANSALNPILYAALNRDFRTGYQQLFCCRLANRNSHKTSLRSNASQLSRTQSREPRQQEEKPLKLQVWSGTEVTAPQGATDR
A further data set concerns the target 5-HT2B (Homo sapiens, UniProt P41595). Kind of data set: 5-HT2B Gq dissociation, β-arrestin2 recruitment BRET and calcium flux assays.
Data set [1] has as its system 5-HT1 Gi/o-coupled receptor subtypes. Put plainly: G protein dissociation BRET assay. The data set is classed as cell-based, human.
The subject of a further data set is rat cortical neurons. Put plainly: Dendritogenesis. It counts as cell-based.

Chain of 5-HT2B (P41595 whole entry): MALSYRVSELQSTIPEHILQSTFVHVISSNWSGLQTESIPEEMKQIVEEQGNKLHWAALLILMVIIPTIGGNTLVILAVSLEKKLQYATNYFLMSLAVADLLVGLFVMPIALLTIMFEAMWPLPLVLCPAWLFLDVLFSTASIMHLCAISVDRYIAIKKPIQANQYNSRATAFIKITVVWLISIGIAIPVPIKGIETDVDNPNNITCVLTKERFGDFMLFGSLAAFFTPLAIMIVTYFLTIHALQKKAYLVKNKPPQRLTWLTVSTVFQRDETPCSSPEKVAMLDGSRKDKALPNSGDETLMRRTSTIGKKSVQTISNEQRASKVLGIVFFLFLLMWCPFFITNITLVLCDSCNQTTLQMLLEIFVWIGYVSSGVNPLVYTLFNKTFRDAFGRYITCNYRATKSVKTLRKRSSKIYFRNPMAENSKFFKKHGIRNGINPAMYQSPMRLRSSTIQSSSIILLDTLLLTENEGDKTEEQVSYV
Chain of β2 (P07550 whole entry): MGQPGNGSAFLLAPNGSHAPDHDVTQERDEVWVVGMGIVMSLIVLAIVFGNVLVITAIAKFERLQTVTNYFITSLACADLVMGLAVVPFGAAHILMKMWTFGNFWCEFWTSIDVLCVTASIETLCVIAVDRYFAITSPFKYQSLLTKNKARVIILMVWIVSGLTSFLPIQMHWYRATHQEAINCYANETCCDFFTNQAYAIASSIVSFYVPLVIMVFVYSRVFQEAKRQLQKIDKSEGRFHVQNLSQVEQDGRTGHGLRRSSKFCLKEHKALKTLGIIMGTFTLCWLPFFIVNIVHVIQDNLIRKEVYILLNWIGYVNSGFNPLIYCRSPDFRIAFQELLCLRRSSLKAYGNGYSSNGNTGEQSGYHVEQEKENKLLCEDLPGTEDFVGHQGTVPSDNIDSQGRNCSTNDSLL
Chain of 5-HT6 (P50406 whole entry): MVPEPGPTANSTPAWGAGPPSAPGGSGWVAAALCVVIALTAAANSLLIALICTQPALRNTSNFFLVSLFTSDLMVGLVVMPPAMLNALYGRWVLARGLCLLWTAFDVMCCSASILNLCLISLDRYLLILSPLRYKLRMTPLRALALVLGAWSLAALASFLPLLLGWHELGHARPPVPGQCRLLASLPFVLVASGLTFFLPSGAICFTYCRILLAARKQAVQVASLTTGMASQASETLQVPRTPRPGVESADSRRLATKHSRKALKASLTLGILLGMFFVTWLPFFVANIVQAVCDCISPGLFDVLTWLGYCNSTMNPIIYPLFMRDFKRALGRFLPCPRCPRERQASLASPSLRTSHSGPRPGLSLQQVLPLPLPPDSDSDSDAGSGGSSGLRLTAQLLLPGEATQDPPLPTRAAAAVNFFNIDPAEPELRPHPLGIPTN

By Kb is commonly meant the affinity of an antagonist, worked out from how it opposes an agonist. In general, IC50 refers to the concentration that gives 50% inhibition. A word on the EC50: it is the concentration giving half of the maximal effect. With `CCN(CC)C(=O)[C@@H]1C=C2c3cccc4[nH]c(Br)c(c34)C[C@H]2N(C)C1.CCN(CC)C(=O)[C@@H]1C=C2c3cccc4[nH]c(Br)c(c34)C[C@H]2N(C)C1.O=C(O)C(O)C(O)C(=O)O` [2-Br-LSD, (6aR,9R)-2-bromolysergic acid diethylamide (2:1) (+)-tartrate], the Kb on β2 was 47 nM. Also, on 5-HT2C, the β-arrestin2 recruitment agonism entry is recorded as “no detectable β-arrestin2 recruitment agonism”. At 5-HT2A, this compound came in with an EMAX of 36.9%. In addition, the concentration for half-maximal inhibition (IC50) on hERG (KV11.1) channel was found to be 31600 nM. For the same compound, the 50% effective concentration (EC50) at 5-HT6 was found to be 0.35 nM. In addition, the “agonism at H2” value at H2 is given as “weak partial agonism”. For the same compound, the 5-HT2B agonist activity entry on 5-HT2B (Gq dissociation, β-arrestin2 recruitment, Gq-mediated calcium flux) was “failed to induce”. The 5-HT2B antagonist activity entry on 5-HT2B (vs 5-HT) is “potent antagonist activity”. Further, the “agonism at all 5-HT1 subtypes” value in data set [1] is on record as “potent pan-agonism”. The “total length of the dendritic arbor” value with rat cortical neurons (1 and 10 μM, 3 h at DIV3) is “increased the total length of the dendritic arbor”. For the same compound, the “number of dendrites crossing the Sholl radii” value with rat cortical neurons (3 h treatment DIV3, read DIV6, maximal at 1 and 10 μM) is recorded as “dose-dependent increase”.
